The text below walks through data of patent US20150210660A1, “ALICYCLIC EPOXY COMPOUND AND METHOD FOR PRODUCING SAME” (DAICEL CORPORATION, priority 2012, published 2015).

Data set [1] can be described thus: Evaluation of reactivity with acid (stirring with 2-ethylhexanoic acid in 1,3,5-trimethylbenzene at 150° C.). The format is physicochemical. Particulars: for Oxirane oxygen content: HBr titrimetry; for Acid value: JIS K 0070. On the procedure: A mixture was prepared by blending 5.2 g of the 3,4-epoxycyclohexylmethyl 3,5,5-trimethylhexanoate prepared in Example 1 (product of Example 1), 1.4 g of 2-ethylhexanoic acid (trade name Octanoic Acid, supplied by Kyowa Hakko Chemical Co., Ltd.), and 8.5 g of 1,3,5-trimethylbenzene (reagent, supplied by Wako Pure Chemical Industries, Ltd.). The mixture was stirred at 150° C. for 6 hours. The acid value and oxirane oxygen content of the mixture were measured before the stirring with heating, and 2 hours, 4 hours, and 6 hours into the stirring.
The oxirane oxygen content measurement in the evaluation of reactivity with acid was performed by HBr titrimetry in which titration was performed with a N/10 hydrogen bromide solution in acetic acid and with crystal violet as an indicator. The acid value measurement was performed in conformance with a method described in JIS K 0070.
Instead of 3,4-epoxycyclohexylmethyl 3,5,5-trimethylhexanoate, there were prepared 3,4-epoxycyclohexylmethyl(3,4-epoxy)cyclohexane carboxylate (trade name CELLOXIDE 2021P, supplied by Daicel Corporation), 4-vinylcyclohexene oxide (trade name CELLOXIDE 2000, supplied by Daicel Corporation), 1-methyl-4-(2-methyloxiranyl)-7-oxabicyclo[4.1.0]heptane (trade name CELLOXIDE 3000, supplied by Daicel Corporation), D-limonene oxide (supplied by Nippon Terpene Chemicals, Inc.), and di-2-ethylhexyl epoxyhexahydrophthalate (trade name SANSO CIZER E-PS, supplied by New Japan Chemical Co., Ltd.). These epoxides were used in charged amounts given in Table 1 and subjected to evaluation of reactivity with an acid (2-ethylhexanoic acid) by the above procedure.
Table 2 also gives acid residual percentages as calculated from the acid values. The acid residual percentages are percentages of the acid present in the system (in the mixture) at the individual timings (after 2 hours, 4 hours, and 6 hours) in which the amount of the acid present in the system before the stirring with heating (0 hour) was defined as 100%.

A short description of data set [2]: Volatility evaluation: boiling point measurement under reduced pressure using a distillator. The format is physicochemical. The method, then:
The 3,4-epoxycyclohexylmethyl 3,5,5-trimethylhexanoate prepared in Example 1 was subjected to boiling point measurement under reduced pressure using a distillator.
The measured boiling points at the individual pressures were plotted on a logarithmic graph (semilogarithmic graph with the logarithmic scale indicating the pressure) to give an approximate curve. Using the approximate curve, a boiling point of the product at normal atmospheric pressure (760 Torr; 101325 Pa) was calculated and found to be 307° C.

The mark [3] stands for this setting: stirring time 0 hr (before heating), defined as 100%.
The mark [4] stands for this setting: stirring time 0 hr (before heating).
Setting [5] is: stirring time 2 hrs at 150° C., calculated from acid values, 0 hr = 100%.
Where [6] appears, read: stirring time 4 hrs at 150° C., calculated from acid values, 0 hr = 100%.
The mark [7] stands for this setting: stirring time 6 hrs at 150° C., calculated from acid values, 0 hr = 100%.

One may read the boiling point as the temperature of boiling at a given pressure.

For the molecule `C=CC1CCC2OC2C1` (centres unmarked) [CELLOXIDE 2000, 4-vinylcyclohexene oxide], the Acid residual percentage in data set [1] (setting [3]) is listed as 100%; in data set [1] (setting [5]), 66%; in data set [1] (setting [6]) it was 49%; in data set [1] (setting [7]) it was 36%. Further, the Oxirane oxygen content in data set [1] (setting [4]) was determined as 1.92%; in data set [1] (stirring time 2 hrs at 150° C.) it was 146%; in data set [1] (stirring time 4 hrs at 150° C.), 1.25%; in data set [1] (stirring time 6 hrs at 150° C.), 1.15%. The Acid value in data set [1] (setting [4]) came out at 35.90 KOH-mg/g; in data set [1] (stirring time 2 hrs at 150° C.), 23.80 KOH-mg/g; in data set [1] (stirring time 4 hrs at 150° C.) it was 17.54 KOH-mg/g; in data set [1] (stirring time 6 hrs at 150° C.) it was 12.90 KOH-mg/g.
Take `CC(CC(=O)OCC1CCC2OC2C1)CC(C)(C)C` (centres unmarked) [Product of Example 1, 3,4-epoxycyclohexylmethyl 3,5,5-trimethylhexanoate]: in data set [2] (760 Torr, 101325 Pa, calculated from approximate curve of the measured boiling points), the “boiling point at normal atmospheric pressure” value was 307 °C. Moreover, the boiling point in data set [2] (at 11 Torr (1467 Pa)) came out at 191 °C; in data set [2] (at 31 Torr (4133 Pa)), 218 °C; in data set [2] (at 50 Torr (6666 Pa)), 233 °C. In addition, in data set [1] (as compared with the other epoxides of Table 2), the “acid-scavenging capability (reactivity with the acid)” value was “higher acid-scavenging capability”. The Acid residual percentage is reported as 100% in data set [1] (setting [3]), 54% in data set [1] (setting [5]), 35% in data set [1] (setting [6]) and 27% in data set [1] (setting [7]). Besides, the Oxirane oxygen content was 1.82% in data set [1] (setting [4]), 1.20% in data set [1] (stirring time 2 hrs at 150° C.), 1.00% in data set [1] (stirring time 4 hrs at 150° C.) and 0.89% in data set [1] (stirring time 6 hrs at 150° C.). Besides, the Acid value in data set [1] (setting [4]) is recorded as 37.66 KOH-mg/g; in data set [1] (stirring time 2 hrs at 150° C.), 20.32 KOH-mg/g; in data set [1] (stirring time 4 hrs at 150° C.), 13.13 KOH-mg/g; in data set [1] (stirring time 6 hrs at 150° C.), 9.98 KOH-mg/g.
With `CCCCC(CC)COC(=O)C1CC2OC2CC1C(=O)OCC(CC)CCCC` (centres unmarked) [SANSO CIZER E-PS, di-2-ethylhexyl epoxyhexahydrophthalate], the Acid residual percentage in data set [1] (setting [3]) is listed as 100%; in data set [1] (setting [5]), 89%; in data set [1] (setting [6]), 84%; in data set [1] (setting [7]) it was 73%. Besides, the Oxirane oxygen content in data set [1] (setting [4]) amounted to 1.84%; in data set [1] (stirring time 2 hrs at 150° C.), 1.72%; in data set [1] (stirring time 4 hrs at 150° C.) it was 1.63%; in data set [1] (stirring time 6 hrs at 150° C.), 1.53%. In addition, the Acid value was found to be 38.13 KOH-mg/g in data set [1] (setting [4]), 33.80 KOH-mg/g in data set [1] (stirring time 2 hrs at 150° C.), 32.16 KOH-mg/g in data set [1] (stirring time 4 hrs at 150° C.) and 27.97 KOH-mg/g in data set [1] (stirring time 6 hrs at 150° C.).
Consider `CC1(C2CCC3(C)OC3C2)CO1` (centres unmarked) [CELLOXIDE 3000, 1-methyl-4-(2-methyloxiranyl)-7-oxabicyclo[4.1.0]heptane], for which the Acid residual percentage is 100% in data set [1] (setting [3]), 68% in data set [1] (setting [5]), 61% in data set [1] (setting [6]) and 52% in data set [1] (setting [7]). Further, the Oxirane oxygen content in data set [1] (setting [4]) came to 1.81%; in data set [1] (stirring time 2 hrs at 150° C.), 0.91%; in data set [1] (stirring time 4 hrs at 150° C.), 0.71%; in data set [1] (stirring time 6 hrs at 150° C.), 0.61%. Moreover, the Acid value in data set [1] (setting [4]) amounted to 36.04 KOH-mg/g; in data set [1] (stirring time 2 hrs at 150° C.), 24.52 KOH-mg/g; in data set [1] (stirring time 4 hrs at 150° C.), 22.04 KOH-mg/g; in data set [1] (stirring time 6 hrs at 150° C.), 18.65 KOH-mg/g.
`C=C(C)C1CCC2(C)OC2C1` [D-Limonene oxide, D-limonene oxide]: the Acid residual percentage in data set [1] (setting [3]) was 100%; in data set [1] (setting [5]), 68%; in data set [1] (setting [6]) it was 58%; in data set [1] (setting [7]), 50%. Further, the Oxirane oxygen content was 1.92% in data set [1] (setting [4]), 1.56% in data set [1] (stirring time 2 hrs at 150° C.), 1.38% in data set [1] (stirring time 4 hrs at 150° C.) and 1.25% in data set [1] (stirring time 6 hrs at 150° C.). For the same molecule, the Acid value in data set [1] (setting [4]) amounted to 38.36 KOH-mg/g; in data set [1] (stirring time 2 hrs at 150° C.), 26.27 KOH-mg/g; in data set [1] (stirring time 4 hrs at 150° C.) it was 22.44 KOH-mg/g; in data set [1] (stirring time 6 hrs at 150° C.), 19.15 KOH-mg/g.
Consider `O=C(OCC1CCC2OC2C1)C1CCC2OC2C1` (centres unmarked) [CELLOXIDE 2021P, 3,4-epoxycyclohexylmethyl(3,4-epoxy)cyclohexane carboxylate], for which the Acid residual percentage in data set [1] (setting [3]) is 100%; in data set [1] (setting [5]) it was 57%; in data set [1] (setting [6]) it was 39%; in data set [1] (setting [7]), 30%. The Oxirane oxygen content in data set [1] (setting [4]) amounted to 2.00%; in data set [1] (stirring time 2 hrs at 150° C.), 1.51%; in data set [1] (stirring time 4 hrs at 150° C.) it was 1.33%; in data set [1] (stirring time 6 hrs at 150° C.), 1.11%. Also, the Acid value in data set [1] (setting [4]) is 37.56 KOH-mg/g; in data set [1] (stirring time 2 hrs at 150° C.), 21.23 KOH-mg/g; in data set [1] (stirring time 4 hrs at 150° C.), 14.54 KOH-mg/g; in data set [1] (stirring time 6 hrs at 150° C.), 11.22 KOH-mg/g.
